“And” between values parts separate entries of the source, which are not always exact repeats. Identical values can stand only once.
How the values were obtained:
CYP3A4 = CYP3A4 (Homo sapiens, UniProt P08684); experiment: CYP450 isoform inhibition, recombinant enzymes, analysis by LCMS: CYP3A4; type: in vitro ADME; design: purchased
Description: (§1) CYP450 Isoform Inhibition
(§2) Microsomes containing individual recombinant human CYP450 enzymes (Supersomes™) were incubated in the presence of a fixed concentration of a probe substrate that forms a fluorescent metabolite upon CYP450-mediated metabolism.
(§3) A known inhibitor of each CYP450 isoform was included in each assay as a positive control and its IC50 was compared to literature values for acceptance of the assay.
(§4) The inherent fluorescence of the test compound was examined under the specific assay conditions for each isoform before and after the fluorometric assay to identify any compound-specific interference due to the parent compound or metabolic products. If the background fluorescence in these samples increased due to compound-specific interference, then the CYP450 inhibition samples were quantified using LC/MS assay.

CYP2C9 = biological target: T1, CYP2C9 (Homo sapiens, UniProt P11712); experiment: CYP450 isoform inhibition, recombinant enzymes, analysis by LCMS: CYP2C9; type: in vitro ADME
T1 construct: using a specific substrate approach in human liver microsomes; from tissue; host or cells: human liver microsomes
T1 sequence (P11712 whole entry, canonical isoform): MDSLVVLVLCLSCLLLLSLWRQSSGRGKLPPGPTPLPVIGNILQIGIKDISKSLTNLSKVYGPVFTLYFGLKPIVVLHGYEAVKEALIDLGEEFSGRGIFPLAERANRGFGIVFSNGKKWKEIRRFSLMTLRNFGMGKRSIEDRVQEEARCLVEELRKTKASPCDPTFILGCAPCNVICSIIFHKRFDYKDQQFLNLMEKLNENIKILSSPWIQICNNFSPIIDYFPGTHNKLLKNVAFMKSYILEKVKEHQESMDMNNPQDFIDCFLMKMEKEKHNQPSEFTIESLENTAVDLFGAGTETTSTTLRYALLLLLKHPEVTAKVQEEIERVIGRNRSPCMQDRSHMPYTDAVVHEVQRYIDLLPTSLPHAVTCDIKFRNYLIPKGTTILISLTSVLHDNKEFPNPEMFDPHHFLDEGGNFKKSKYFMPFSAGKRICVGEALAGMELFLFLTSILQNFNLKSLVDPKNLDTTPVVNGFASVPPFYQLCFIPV
Description: as §1, §2, §3, §4

[1] = Plasma Protein Binding, mouse; type: in vitro ADME
[2] = Plasma Protein Binding, rat; type: in vitro ADME
[3] = tested on: M17 human neuroblastoma cells; experiment: Metal Uptake Assay (metal transport); type: cell-based; details: 10 μM Cu + 10 μM compound, 5 hours
Description: Assay 3. Metal Uptake Assay
M17 human neuroblastoma cells are plated out on 6 well plates and left overnight. Enough cells are added to give approximately 70% confluent the following day of the experiment. Test compounds are added to media and mixed with equi-molar amounts of CuCl2 solution. A=10 μM Cu+10 μM MPAC; B=10 μM Cu+10 μM MPAC.
Cells are incubated in 1 ml of media/MPAC/Cu mix for 5 hours at 37° C. At the end of the incubation the media is removed with a vacuum aspirator and 1 ml of PBS added to dislodge the cells. Cells are then put into Eppendorf tubes and pelleted. The PBS is removed and the remaining cell pellets are frozen at −20 C.
The cell pellets are prepared as follows:
Received cell pellets of similar levels in 1.5 ml microfuge tubes. Added 50 μl of concentrated Nitric Acid (Aristar, BDH) to each cell pellet and allowed them to digest over night. Heated the samples for 20 min at 90° C. to complete the digestion. The volume of each sample was reduced to ˜45 ul after digestion. Added 1 ml of the 1% Nitric Acid diluent to each sample. (referred to as the “preparation solution” samples).
Measurements were made using a Varian UltraMass ICPMS instrument under operating conditions suitable for routine multi-element analysis.
The instrument was calibrated using Blank, 10, 50 and 100 ppb of a certified multi-element ICPMS standard solution (ICP-MS—CAI2-1, Accustandard) for Fe, Cu and Zn in 1% nitric acid. Used an certified internal standard solution containing 100 ppb Yttrium (Y 89) as an internal control (ICP-MS—IS-MIX1-1, Accustandard).

[4] = tested on: generation of hydrogen peroxide (H2O2) by iron; experiment: H2O2 Inhibition Assay; type: biochemical
Description: Assay 1. H2O2 Inhibition Assay.
This fluoresence assay evaluates the ability of a test compound to inhibit the generation of hydrogen peroxide (H2O2) by iron in the presence of a reducing substrate such as ascorbic acid. In the assay, iron in the form of FeCl3 or copper is allowed to react with ascorbic acid by incubating for 1 hr at 37° C. in the presence of the fluorescing compound DCF and horseradish peroxidase. H2O2 generated by the system is assessed by measuring the specific fluorescence profile at the excitation and emission wavelengths of 485 and 530 nm respectively, in the presence of increasing concentrations of test compound. Test compounds are ranked according to their capacity to inhibit H2O2 generated by the system where lower values reflect greater ability to inhibit H2O2 production.

M17 = experiment: Cytotox (% viable), cells marked M17; type: cell-based, human; details: repeat values given
Neuronal cortical cells = experiment: Cytotox (% viable); Primary Neuronal Cells Neurotoxicity Assay; type: cell-based, mouse; details: cell type not given, repeat values given
Description: Assay 2 (a). Primary Neuronal Cells Neurotoxicity Assays
Cortical cultures were prepared as previously described (White et al., 1998). Embryonic day 14 BL6Jx129sv mouse cortices were removed, dissected free of meninges and dissociated in 0.025% (wt/vol) trypsin. Dissociated cells were plated in 48 well culture plates at a density of 2×10^6 cells/mL in MEM with 25% (vol/vol) FCS and 5% (vol/vol) HS and incubated at 37° C., 2 hrs. Media was then replaced with Neurobasal media (Invitrogen Life Technologies) and B27 supplements (Invitrogen Life Technologies). Cultures were maintained at 37° C. in 5% CO2. Prior to experimentation, the culture medium was replaced with Neurobasal media and B27 minus antioxidants (Invitrogen Life Technologies).
Neuronal cortical cells were cultured for five days as per Assay 2 in NB media and B27 supplement.
On day six the test compounds were added to the neuronal cell cultures in NB media and B27 supplement minus antioxidants.
Test compounds were dissolved in 100% DMSO to a concentration of 2.5 mM (10 mM if excess compound was weighed out per vial—then diluted to 2.5 mM). 2.5 mM stock solution was serially diluted 1 in 10 to give working solutions of 250 uM, 25 uM, 2.5 uM. Test compounds were not added directly to cells, instead they were added to a 48 well ‘Drug Plate’ as comprised below: • Preparation of “Drug Plate”:
Well 1: 576 ul NB+B27 (no antioxidant)*+24 ul 2.5 uM test compound
Well 2: 576 ul NB+B27 (no antioxidant)+24 μl 25 uM test compound
Well 3: 576 ul NB+B27 (no antioxidant)+24 ul 250 uM test compound
Well 4: 576 ul NB+B27 (no antioxidant)+24 ul 2.5 uM test compound
Well 5: 576 ul NB+B27 (no antioxidant)+24 ul 25 uM test compound
Well 6: 576 ul NB+B27 (no antioxidant)+24 ul 250 uM test compound
Well 7: 576 ul NB+B27 (no antioxidant)+24 ul test compound diluent**
Well 8: 600 ul NB+B27 (no antioxidant)
The Drug Plate was incubated at 37° C. for 15 mins. 200 ul of each well was added in triplicate to the corresponding cell plate. The cell plate was incubated at 37° C., for 4 days, (2 compounds are tested on each plate of cells).
*NB media and B27 (no antioxidants),
**PBT diluent 10% DMSO in NB+1327 (no antioxidants)
On completion of the assay, 1/10 volume MTS was added per well of plate (ie 25 ul/250 ul). The plates were incubated at 37° C. for 2 hrs, and then absorbance was read at 560 nm.

Chain of CYP3A4 (P08684 whole entry, canonical isoform): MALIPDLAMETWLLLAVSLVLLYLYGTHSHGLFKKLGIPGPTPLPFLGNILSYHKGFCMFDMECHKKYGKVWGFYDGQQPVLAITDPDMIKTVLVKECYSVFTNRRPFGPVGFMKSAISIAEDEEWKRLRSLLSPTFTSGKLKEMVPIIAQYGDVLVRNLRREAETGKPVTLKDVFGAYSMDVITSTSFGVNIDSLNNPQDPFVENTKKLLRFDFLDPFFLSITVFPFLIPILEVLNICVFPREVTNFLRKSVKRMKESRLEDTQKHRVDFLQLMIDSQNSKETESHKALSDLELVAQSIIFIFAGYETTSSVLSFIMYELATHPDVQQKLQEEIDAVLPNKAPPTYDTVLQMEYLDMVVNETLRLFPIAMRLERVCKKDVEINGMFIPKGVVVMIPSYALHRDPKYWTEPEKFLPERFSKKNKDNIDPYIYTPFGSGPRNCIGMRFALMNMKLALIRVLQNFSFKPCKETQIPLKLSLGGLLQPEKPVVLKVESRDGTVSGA

Compound	IC50 [4]	Metal transport [3]	Cytotox (% viable at 1 uM) (Neuronal cortical cells)	Cytotox (% viable at 10 uM) (Neuronal cortical cells)	also measured
CNCc1nc2c(O)c(Cl)cc(Cl)c2c(=O)n1C [Compound F4161]					IC50 (CYP3A4): 13800 nM; IC50 (CYP2C9): > 40000 nM
CCn1c(CN(C)C)nc2c(O)c(Cl)cc(Cl)c2c1=O.Cl [Compound F4268]					fraction unbound [1]: 0.178 to 0.203; fraction unbound [2]: 0.052 to 0.055
CN(C)Cc1nc2c(O)c(Cl)cc(Cl)c2c(=O)n1C [Compound F4269, 5,7-Dichloro-2-(dimethylamino)methyl-8-hydroxy-3-methylquinazolin-4(3H)-one]					fraction unbound [1]: 0.582 to 0.658; fraction unbound [2]: 0.074 to 0.116
CCN(CC)Cc1nc2c(O)c(Cl)cc(Cl)c2c(=O)n1CC1CC1 [Compound F4385]	910 nM	Metal transport 9%			Cytotox (% viable at 1 uM) (M17): 99.2% and 105.0%; Cytotox (% viable at 10 uM) (M17; 10 uM): 97.7%
Br.CCn1c(CNC)nc2c(O)c(Cl)cc(Cl)c2c1=O [Compound F4486]	1930 nM	Metal transport 14%	97.9% and 101.4%	52.2% and 43.3%	
Br.CCNCc1nc2c(O)c(Cl)cc(Cl)c2c(=O)n1C [Compound F4496]	830 nM	Metal transport 7%	102.7% and 114.6%	59.4% and 101.2%	

The next lines start with results.

IC50 [4]	Compound	Metal transport [3]	Cytotox (% viable at 1 uM) (Neuronal cortical cells)	Cytotox (% viable at 10 uM) (Neuronal cortical cells)	also measured
460 nM	C#CCN(C)Cc1nc2c(O)c(Cl)cc(Cl)c2c(=O)n1CC1CC1 [Compound F4387]	Metal transport 111%			Cytotox (% viable at 1 uM) (M17): 104.0% and 92.7% and 95.9% and 100.7%
770 nM	CCNCc1nc2c(O)c(Cl)cc(Cl)c2c(=O)n1CC [Compound F4495]	Metal transport 8%	89.3% and 112.8%	47.9% and 57.1%	

Reference: patent US9145375B2, “Quinazolinone compounds” (PRANA BIOTECHNOLOGY LIMITED, priority 2008, dated 2015)
